Laboratory results from patent publication US20150353495A1 (PORTOLA PHARMACEUTICALS, INC., priority 2010, published 2015).

What was measured:
Type in all cases: biochemical
JAK2 = target: T1, JAK2 (Homo sapiens, UniProt O60674); assay: Z'-LYTE kinase assay JAK2
T1 construct: 5 μl of catalytic domain recombinant Kinase enzyme+Tyr peptide substrate (Invitrogen, CA); purchased Invitrogen
Procedure, shortened: (§1)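 Catalytic-domain recombinant kinase was incubated with Tyr6 FRET peptide, ATP and compound (1% DMSO final) for 1 h at room temperature. Protease development followed for 1 h, cleaving only non-phosphorylated peptide. Inhibition of phosphorylation was read as coumarin/fluorescein FRET fluorescence.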

JAK3 = target: T2, JAK3 (Homo sapiens, UniProt P52333); assay: Z'-LYTE kinase assay JAK3
T2 construct: 5 μl of catalytic domain recombinant Kinase enzyme+Tyr peptide substrate (Invitrogen, CA); purchased Invitrogen
T2 sequence (P52333 822-1111 limits assumed): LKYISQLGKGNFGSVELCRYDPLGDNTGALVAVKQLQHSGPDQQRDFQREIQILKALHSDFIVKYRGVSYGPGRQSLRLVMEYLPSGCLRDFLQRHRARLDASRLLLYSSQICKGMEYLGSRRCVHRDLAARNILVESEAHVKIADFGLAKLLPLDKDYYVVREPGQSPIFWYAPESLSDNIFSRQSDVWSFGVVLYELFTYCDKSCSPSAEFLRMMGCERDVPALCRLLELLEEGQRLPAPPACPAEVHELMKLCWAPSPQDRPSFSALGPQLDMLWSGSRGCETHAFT
Procedure, shortened: as §1

JAK1 = target: T3, JAK1 (Homo sapiens, UniProt P23458); assay: Z'-LYTE kinase assay JAK1
T3 construct: 5 μl of catalytic domain recombinant Kinase enzyme+Tyr peptide substrate (Invitrogen, CA); purchased Invitrogen
T3 sequence (P23458 875-1153 limits assumed): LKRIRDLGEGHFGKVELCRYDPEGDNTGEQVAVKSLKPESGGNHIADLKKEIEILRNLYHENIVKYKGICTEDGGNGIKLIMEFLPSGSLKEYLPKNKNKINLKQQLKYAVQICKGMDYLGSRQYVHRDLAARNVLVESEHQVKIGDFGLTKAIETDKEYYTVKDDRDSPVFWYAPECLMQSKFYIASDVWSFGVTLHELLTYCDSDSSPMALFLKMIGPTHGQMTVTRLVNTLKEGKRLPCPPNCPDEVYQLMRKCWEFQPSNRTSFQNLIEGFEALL
Procedure, shortened: as §1

T1 sequence (O60674 849-1124 limits assumed): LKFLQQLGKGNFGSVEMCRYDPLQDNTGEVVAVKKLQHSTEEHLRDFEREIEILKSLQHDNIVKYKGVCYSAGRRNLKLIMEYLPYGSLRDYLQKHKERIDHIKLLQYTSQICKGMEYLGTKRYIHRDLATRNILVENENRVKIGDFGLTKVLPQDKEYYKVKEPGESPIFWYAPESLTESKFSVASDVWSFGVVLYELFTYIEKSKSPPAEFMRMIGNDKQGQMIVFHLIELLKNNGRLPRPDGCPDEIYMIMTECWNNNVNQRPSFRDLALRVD

Compound	IC50 (JAK2) [nM]	IC50 (JAK3) [nM]	IC50 (JAK1) [nM]
CN(C)S(=O)(=O)N1CC(c2ccc(Nc3cc(NCc4ccccc4)c(C(N)=O)cn3)cc2)C1 [Example 339, 4-(benzylamino)-6-(4-(1-(N,N-dimethylsulfamoyl)azetidin-3-yl)phenylamino)nicotinamide]	> 1000	10 to 100	> 1000
CCC(=O)N1CCC(c2ccc(Nc3cc(N[C@H](C)C(C)C)c(C(N)=O)cn3)cc2)CC1 [Example 189, (R)-4-(3-methylbutan-2-ylamino)-6-(4-(1-propionylpiperidin-4-yl)phenylamino)nicotinamide]	10 to 100	1 to 10	10 to 100
NC(=O)c1cnc(Nc2cc(F)cc(F)c2)cc1NCc1cccc2[nH]ccc12 [Example 323, 4-((1H-indol-4-yl)methylamino)-6-(3,5-difluorophenylamino)nicotinamide]	> 1000	100 to 1000	> 1000
CC(=O)N(C)c1ccc(Nc2cc(NCc3cccc4cc[nH]c34)c(C(N)=O)cn2)cc1 [Example 470, 4-((1H-indol-7-yl)methylamino)-6-(4-(N-methylacetamido)phenylamino)nicotinamide]	100 to 1000	10 to 100	> 1000
N#Cc1ccc(Nc2cc(NCc3ccccc3)c(C(N)=O)cn2)cc1C#N [Example 393]	> 1000	> 1000	> 1000
CCC(=O)N1CC(c2ccc(Nc3cc(NCc4cccc(F)n4)c(C(N)=O)cn3)cc2)C1 [Example 490, 4-((6-fluoropyridin-2-yl)methylamino)-6-(4-(1-propionylazetidin-3-yl)phenylamino)nicotinamide]	100 to 1000	10 to 100	100 to 1000
Cc1cc(Nc2cc(NCc3cncnc3)c(C(N)=O)cn2)ccc1C(=O)N(C)C [Example 287, 6-(4-(dimethylcarbamoyl)-3-methylphenylamino)-4-(pyrimidin-5-ylmethylamino)nicotinamide]	> 1000	100 to 1000	> 1000
CN1C(=O)COc2ccc(Nc3cc(NCc4ccccc4)c(C(N)=O)cn3)cc21 [Example 85, 4-(benzylamino)-6-(4-methyl-3-oxo-3,4-dihydro-2H-benzo[b][1,4]oxazin-6-ylamino)nicotinamide]	> 1000	10 to 100	> 1000
CN(C)C(=O)c1ccc(Nc2cc(NCc3cccc(-c4ccccn4)c3)c(C(N)=O)cn2)cc1 [Example 421, 6-(4-(dimethylcarbamoyl)phenylamino)-4-(3-(pyridine-2-yl)benzylamino)nicotinamide]	100 to 1000	10 to 100	> 1000
CN(CC(F)(F)F)C(=O)c1ccc(Nc2cc(NCc3cncc(F)c3)c(C(N)=O)cn2)cc1 [Example 314, 4-((5-fluoropyridin-3-yl)methylamino)-6-(4-(methyl(2,2,2-trifluoroethyl)carbamoyl)phenylamino)nicotinamide]	100 to 1000	10 to 100	> 1000
C[C@@H](Nc1cc(Nc2ccc(C3CCOCC3)cc2)ncc1C(N)=O)C(C)(C)C [Example 168, (R)-4-(3,3-dimethylbutan-2-ylamino)-6-(4-(tetrahydro-2H-pyran-4-yl)phenylamino)nicotinamide]	10 to 100	10 to 100	100 to 1000
CN(C)C(=O)C1CN(c2ccc(Nc3cc(NCc4cccc5ccsc45)c(C(N)=O)cn3)cc2F)C1 [Example 349, 4-(benzo[b]thiophen-7-ylmethylamino)-6-(4-(3-(dimethylcarbamoyl)azetidin-1-yl)-3-fluorophenylamino)nicotinamide]	10 to 100	1 to 10	100 to 1000
COc1ccc(Nc2cc(NC[C@H]3CCCNC3)c(C(N)=O)cn2)cc1 [Example 270, (S)-6-(4-methoxyphenylamino)-4-(piperidin-3-ylmethylamino)nicotinamide]	> 1000	100 to 1000	100 to 1000
NC(=O)c1cnc(Nc2ccc(C3CCOCC3)cc2)cc1NCC1(O)CCCC1 [Example 141, 4-((1-hydroxycyclopentyl)methylamino)-6-(4-(tetrahydro-2H-pyran-4-yl)phenylamino)nicotinamide]	100 to 1000	10 to 100	> 1000
COC(=O)N1CCC[C@H](CNc2cc(Nc3ccc(OC)cc3)ncc2C(N)=O)C1 [Example 56, (R)-methyl 3-((5-carbamoyl-2-(4-methoxyphenylamino)pyridin-4-ylamino)methyl)piperidine-1-carboxylate]	> 1000	100 to 1000	> 1000
COC(=O)N(C)c1ccc(Nc2cc(NCc3cccc(F)n3)c(C(N)=O)cn2)cc1 [Example 487]	100 to 1000	10 to 100	100 to 1000

Now from value to compound:

IC50 (JAK2) [nM]	IC50 (JAK3) [nM]	IC50 (JAK1) [nM]	Compound
> 1000	100 to 1000	> 1000	N#Cc1ccc(Nc2cc(NCc3ccccc3)c(C(N)=O)cn2)cc1 [Example 392]
> 1000	10 to 100	> 1000	COc1ccc(Nc2cc(NCc3cccc4c3ccn4C)c(C(N)=O)cn2)cc1 [Example 303, 6-(4-methoxyphenylamino)-4-((1-methyl-1H-indol-4-yl)methylamino)nicotinamide]
100 to 1000	10 to 100	100 to 1000	NC(=O)c1cnc(Nc2cccc(F)c2)cc1NCc1cncc(F)c1 [Example 306, 6-(3-fluorophenylamino)-4-((5-fluoropyridin-3-yl)methylamino)nicotinamide]
100 to 1000	10 to 100	> 1000	CCC(=O)N1CCC(c2ccc(Nc3cc(NCC4CCCCC4)c(C(N)=O)cn3)cc2)CC1 [Example 192, 4-(cyclohexylmethylamino)-6-(4-(1-propionylpiperidin-4-yl)phenylamino)nicotinamide]
> 1000	10 to 100	> 1000	N#CC1(C(=O)N2CCC(c3ccc(Nc4cc(NCc5ccccc5F)c(C(N)=O)cn4)cc3)CC2)CC1 [Example 118, 6-(4-(1-(1-cyanocyclopropanecarbonyl)piperidin-4-yl)phenylamino)-4-(2-fluorobenzylamino)nicotinamide]
100 to 1000	10 to 100	> 1000	CN(C)C(=O)c1ccc(Nc2cc(NCc3cccc(S(C)(=O)=O)c3)c(C(N)=O)cn2)cc1 [Example 302, 6-(4-(dimethylcarbamoyl)phenylamino)-4-(3-(methylsulfonyl)benzylamino)nicotinamide]
100 to 1000	100 to 1000	> 1000	CC(=O)N1CCC[C@H](CNc2cc(Nc3ccc(C(=O)N(C)C)c(N(C)C)c3)ncc2C(N)=O)C1 [Example 445, (R)-4-((1-acetylpiperidin-3-yl)methylamino)-6-(3-(dimethylamino)-4-(dimethylcarbamoyl)phenylamino)nicotinamide]
100 to 1000	10 to 100	> 1000	CN(C)S(=O)(=O)c1ccc(Nc2cc(NCc3cc(F)ccc3F)c(C(N)=O)cn2)cc1 [Example 98, 4-(2,5-difluorobenzylamino)-6-(4-(N,N-dimethylsulfamoyl)phenylamino)nicotinamide]
> 1000	100 to 1000	> 1000	COc1ccc(Nc2cc(NCC3CCCC3)c(C(N)=O)cn2)cc1 [Example 32, 4-(cyclopentylmethylamino)-6-(4-methoxyphenylamino)nicotinamide]
> 1000	100 to 1000	> 1000	CN(C)S(=O)(=O)c1ccc(Nc2cc(NCC3CCCC3)c(C(N)=O)cn2)cc1 [Example 97, 4-(cyclopentylmethylamino)-6-(4-(N,N-dimethylsulfamoyl)phenylamino)nicotinamide]
100 to 1000	10 to 100	100 to 1000	NC(=O)c1cnc(Nc2ccc(C3CCOCC3)cc2)cc1NCc1cccnc1 [Example 185, 4-(pyridin-3-ylmethylamino)-6-(4-(tetrahydro-2H-pyran-4-yl)phenylamino)nicotinamide]
100 to 1000	10 to 100	> 1000	N#CCN1CCC(c2ccc(Nc3cc(NCc4cccc(F)c4F)c(C(N)=O)cn3)cc2)CC1 [Example 215, 6-(4-(1-(cyanomethyl)piperidin-4-yl)phenylamino)-4-(2,3-difluorobenzylamino)nicotinamide]
100 to 1000	100 to 1000	> 1000	CCC(=O)N1CCC(c2ccc(Nc3cc(NC4CCOCC4)c(C(N)=O)cn3)cc2)CC1 [Example 146, 6-(4-(1-propionylpiperidin-4-yl)phenylamino)-4-(tetrahydro-2H-pyran-4-ylamino)nicotinamide]
10 to 100	1 to 10	> 1000	CCC(=O)N1CCC(c2ccc(Nc3cc(NCc4cccc(F)c4)c(C(N)=O)cn3)cc2)CC1 [Example 145, 4-(3-fluorobenzylamino)-6-(4-(1-propionylpiperidin-4-yl)phenylamino)nicotinamide]
> 1000	> 1000	> 1000	CC(=O)N1CCN(c2cccc(N(C(C)=O)c3cc(NC4(c5ccccc5)CC4)c(C(N)=O)cn3)c2)CC1 [Example 372, 6-(N-(3-(4-acetylpiperazin-1-yl)phenyl)acetamino)-4-(1-phenylcyclopropylamino)nicotinamide]
100 to 1000	10 to 100	> 1000	COC[C@@H](Nc1cc(Nc2ccc(N3CCOCC3)cc2)ncc1C(N)=O)c1ccccc1 [Example 262, (S)-4-(2-methoxy-1-phenylethylamino)-6-(4-morpholinophenylamino)nicotinamide]
> 1000	100 to 1000	100 to 1000	CS(=O)(=O)N1CCC(Nc2cc(Nc3ccc(C4CCOCC4)cc3)ncc2C(N)=O)CC1 [Example 165, 4-(1-(methylsulfonyl)piperidin-4-ylamino)-6-(4-(tetrahydro-2H-pyran-4-yl)phenylamino)nicotinamide]
